Data reported in patent EP1108710A1, “GUAIACOXYPROPANOLAMINES WITH ALPHA/BETA-ADRENERGIC BLOCKING ACTIVITY” (Cheng, Ing-Jun, priority 1998, dated 2000).
Where two headings read alike, the source gives them in different places.

Assays:
[1] = tested on: Wistar rat's isolated thoracic aorta; test: Isolated thoracic aorta contraction caused by 75mM KCl
Protocol: After sacrificing Wistar rat of weight between 300 - 500 gm, the thoracic aorta was immediately removed and placed in cold Kreb's solution. The fatty connecting tissue surrounding the vessel wall was removed and the thoracic aorta was cut into rings of length 5 mm. The two ends of each ring was pieced and fixed with "Z" shaped platinum wires. […] When the results had been recorded for at least 35 minutes, the aorta was repeatedly rinsed with normal Kreb's solution. […] 30 minutes later, 75mM KCl was added again to induce vasoconstriction.

normotensive rats = test: Heart rate and blood pressure in living (anaesthetized) rat, intravenous injection; format: in vivo, Wistar rats; settings: lmg/kg; via femoral vein, rats
Description: Male Wistar rats, weighing 200 ∼ 300g were abdominal anaesthetized with pentobarbital sodium. Tracheal was cannulated to maintain normal respiration. Polyethylene tube was inserted into the left femoral vein to facilitate drug administration. A 3-way stopcock was used, with one end connected to a syringe for drug injection, while the other end was connected to the syringe filled with physiological saline. The latter was used to prevent residual drugs in the polyethylene tube after injection, which would affect experimental accuracy.
The right femoral artery was also inserted with polyethylene, and a 3-way stopcock was used tool, where one end was connected to heparin solution to prevent embolism. The other end was connected to a Disposable Diaphragm Dome, TA1019, and linked to a transducer. Through an amplifier, a recorder recorded the overall and average arterial pressure; heart rate to evaluate the effect of drug on blood pressure and heart rate.

[2] = tested on: Wistar rat's isolated; reserpine pretreated right atrium beating rate and left atrium isometric contractions; test: Direct effect (intrinsic sympathomimetic activity) on reserpine-pretreated isolated atria
Protocol: Pharmacol 311, pp. 205-218 and pp 237-248 (1980). Wistar rats of weight between 200 ∼ 300 gm were used. 18 ∼ 24 hours before the experiment, 5mg/kg of reserpine was injected via abdominal cavity to remove all endogenous catecholamines. Prior experiment, Wistar rats were sacrificed, the heart was immediately removed and placed in Kreb's solution aerated with air mixture and maintained at room temperature. The right and left atria were carefully separated.

[3] = tested on: guinea pig's isolated; reserpine pretreated tracheal; test: Direct effect (tracheal relaxation, intrinsic sympathomimetic activity) on reserpine-pretreated isolated trachea, with and without ICI 118,551; settings: cumulative administration 10^-10∼3x10^-6 M, reserpine pretreated
Protocol: Pharmacol 311, pp. 205-218 and pp.237-248 (1980). guinea pigs of weight between 350 ∼ 500 gm were used. 18 ∼ 24 hours before the experiment, 5mg/kg of reserpine was injected via abdominal cavity to remove all endogenous catecholamines. Prior experiment, guinea pigs were sacrificed, the tracheal was immediately removed and placed in Kreb's solution aerated with air mixture and maintained at room temperature of 22 ∼ 25°C. […] […] Then the tissue was repeatedly washed with Kreb's solution. After the tissue had been re-equilibrated for 60 minutes, ICI 118, 551 were administed. After treatment for 30 minutes, compound 1 of similar concentration was administered, and the intrinsic sympathomimetic activity of tracheal was observed.

β-adrenoreceptor (β1) = molecular target: T1, β-adrenoreceptor (β1) (Rattus norvegicus, UniProt P18090); test: β-adrenoceptor blocking action on isolated spontaneously beating right atrium (L-isoproterenol-induced heart rate increase, Schild plot); set-up: species or system Wistar rat; settings: from the average pA2 difference between right atrium and tracheal
T1 construct: The right and left atria were then separated; from tissue; host or cells: isolated rat right and left atria
T1 sequence (P18090 whole entry): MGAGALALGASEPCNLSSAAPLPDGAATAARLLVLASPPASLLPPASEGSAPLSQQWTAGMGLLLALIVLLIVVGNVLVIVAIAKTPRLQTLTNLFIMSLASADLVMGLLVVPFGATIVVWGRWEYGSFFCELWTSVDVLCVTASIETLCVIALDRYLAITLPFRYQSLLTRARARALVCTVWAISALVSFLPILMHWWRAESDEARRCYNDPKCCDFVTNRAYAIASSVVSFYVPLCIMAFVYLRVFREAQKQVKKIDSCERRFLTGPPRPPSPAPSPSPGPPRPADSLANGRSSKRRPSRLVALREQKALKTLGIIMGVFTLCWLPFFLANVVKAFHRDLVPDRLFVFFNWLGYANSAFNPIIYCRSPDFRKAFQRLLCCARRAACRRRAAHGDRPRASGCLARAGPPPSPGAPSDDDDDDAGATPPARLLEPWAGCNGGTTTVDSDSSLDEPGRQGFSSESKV
Protocol: The right and left atria were then separated. The spontaneously-beating right atria was clipped on both end by heart shaped clips, where one end was fixed at the bottom of 10ml of tissue bath made of physiological saline solution, and temperature maintained at 37°C. The other end of the atria was connected to a force transducer, and isometric contractions and beating rate of the right atria were recorded by COULBOURN AT-High-Speed VideoFigure. […] Cumulative administration interval was when the previous concentration reached its greatest effect, the next concentration would be immediately given.

[4] = 10^-8M, thoracic aorta contraction caused by 75mM KCl

SMILES | Aorta Relaxation [1, 4] | Lowering of Blood Pressure (normotensive rats) | Reduction of Heart Rate (normotensive rats) | further results
CCOC(=O)C1=C(C)NC(C)=C(C(=O)OCC)C1c1ccc(OCC(O)CNCCOc2ccccc2OC)c(Cl)c1 (stereo not shown) [compound 7, 4-{{N-{4-[2-hydroxy-3-(2-methoxy-1-oxyethylaminobenzene)propoxy]-3-choloro}phenyl}}-2,6-dimethyl-3,5-dicarbo-ethoxy-1,4-dihydropyridine] | 45± 5% | 82± 6 mm Hg | 40± 2 beats/min | –
CC(C)NCC(O)COc1ccc(CC(N)=O)cc1 (stereo not shown) [ATENOLOL] | – | – | – | atrial blocking effect ([2]; 3x10-4M): almost does not have atrial blocking effect
CCOC(=O)C1=C(C)NC(C)=C(C(=O)OCC)C1c1cc(Cl)ccc1OCC(O)CNCCOc1ccccc1OC (stereo not shown) [compound 6] | – | 80± 3 mm Hg | 35± 5 beats/min | Aorta Relaxation [1]: 45± 4%
CCOC(=O)C1=C(C)NC(C)=C(C(=O)OCC)C1c1cc([N+](=O)[O-])ccc1OCC(O)CNCCOc1ccccc1OC (stereo not shown) [compound 9] | 47± 2% | 85± 6 mm Hg | 40± 5 beats/min | –
CC(C)NCC(O)COc1cccc2ccccc12 (stereo not shown) [PROPRANOLOL] | – | – | – | tracheal relaxation effect [3]: did not produce any relaxation effect; direct effect on atrial tissue ([2]; 10^-4∼10^-3 M): could inactivate or unexcited the tissue; direct effect on right atrium beating rate and left atrium isometric contractions ([2]; cumulative administration, reserpine pretreated): could retard the beating rate and isometric contractions
CC(C)NC[C@H](O)c1ccc(O)c(O)c1 [L-isoproterenol] | – | – | – | tracheal relaxation effect [3]: dose-dependant tracheal relaxation effect
COC(=O)C1=C(C)NC(C)=C(C(=O)OC)C1c1ccc(OCC(O)CNCCOc2ccccc2OC)c(OC)c1 (stereo not shown) [compound 2, 4-{{N-{4-[2-hydroxy-3-(2-methoxy-1-oxyethyl-aminobenzene)propoxy]-3-methoxy}phenyl}}-2,6-dimethyl-3,5-dicarbo-methoxy-1,4-dihydropyridine] | 40± 4% | 75± 2 mm Hg | 35± 4 beats/min | –
CCOC(=O)C1=C(C)NC(C)=C(C(=O)OCC)C1c1ccc(OCC(O)CNCCOc2ccccc2OC)c(OC)c1 (stereo not shown) [compound 3, 4-{{N-{4-[2-hydroxy-3-(2-methoxy-1-oxyethyl-aminobenzene)propoxy]-3-methoxy}phenyl}}-2,6-dimethyl-3,5-dicarboethoxy-1,4-dihydropyridine] | 41± 2% | 78± 5 mm Hg | 37± 5 beats/min | –
COc1cc(C=O)ccc1OCC(O)CNC(C)(C)C (stereo not shown) [VANIDILOL, reference compound] | – | – | – | selectivity ratio of β1 type adrenoceptor (effect on right atrium relative to tracheal) (β-adrenoreceptor (β1)): 0.98 X; tracheal relaxation effect [3]: dose-dependant tracheal relaxation effect
CCOC(=O)C1=C(C)NC(C)=C(C(=O)OCC)C1c1cc([N+](=O)[O-])ccc1OCC(O)CNC(C)(C)C (stereo not shown) [compound 8] | 43± 3% | 80± 3 mm Hg | 40± 4 beats/min | –
CCOC(=O)C1=C(C)NC(C)=C(C(=O)OCC)C1c1cc(Cl)ccc1OCC(O)CNC(C)(C)C (stereo not shown) [compound 4] | 35± 5% | 76± 6 mm Hg | 33± 3 beats/min | –
CCCCNCC(O)COc1ccc(Cl)cc1C1C(C(=O)OCC)=C(C)NC(C)=C1C(=O)OCC (stereo not shown) [compound 5] | 33± 2% | 74± 4 mm Hg | 32± 4 beats/min | –
